Results on four compounds are retold here after ChEMBL document CHEMBL1201862, “PubChem BioAssay data set” (2004).

Active and inactive are the calls of the source.

Test [1] in a line: inhibitors of firefly luciferase expression or activity, dose response, H4 neuroglioma cells, luminescence (AID 1990). The class given is functional, cell-based.
The target in test [2] is T1, Streptokinase A (Streptococcus pyogenes serotype M1, UniProt P10520).
T1 sequence (P10520 whole entry): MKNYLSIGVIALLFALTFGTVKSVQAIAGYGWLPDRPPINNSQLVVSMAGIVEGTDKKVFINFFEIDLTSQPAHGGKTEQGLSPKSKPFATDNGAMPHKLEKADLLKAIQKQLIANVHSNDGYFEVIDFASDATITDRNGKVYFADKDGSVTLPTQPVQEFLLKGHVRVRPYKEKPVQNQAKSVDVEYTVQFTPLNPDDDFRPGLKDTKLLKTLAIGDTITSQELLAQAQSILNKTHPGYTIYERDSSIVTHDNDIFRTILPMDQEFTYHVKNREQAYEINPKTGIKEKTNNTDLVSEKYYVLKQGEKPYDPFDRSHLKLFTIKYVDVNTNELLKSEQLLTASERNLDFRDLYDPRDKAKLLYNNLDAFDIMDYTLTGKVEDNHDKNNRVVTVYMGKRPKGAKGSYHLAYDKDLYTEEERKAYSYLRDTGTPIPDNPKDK
The experiment in a line: S. pyogenes streptokinase expression inhibitors, potency, dose response, plasminogen activation absorbance, OD405 (AID 1914).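 Also: secreted streptokinase activity via plasminogen activation per viability signal from cell pellet.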 The class given is functional, Streptococcus pyogenes M1 GAS.

The target in test [3] is Photoreceptor-specific nuclear receptor (Homo sapiens, UniProt Q9Y5X4). Format: functional, cell-based.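 Also: CHO-S cells with Gal4-NCOR and VP16-NR2E3 two-hybrid luciferase reporter.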
The target in test [4] is T2, Tyrosine-protein phosphatase non-receptor type 22 (Homo sapiens, UniProt Q9Y2R2).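 Also: confirmatory dose-response retest of primary uHTS hits for inhibition of LYP phosphatase, measured by a fluorescence intensity read-out.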
T2 sequence (Q9Y2R2 whole entry): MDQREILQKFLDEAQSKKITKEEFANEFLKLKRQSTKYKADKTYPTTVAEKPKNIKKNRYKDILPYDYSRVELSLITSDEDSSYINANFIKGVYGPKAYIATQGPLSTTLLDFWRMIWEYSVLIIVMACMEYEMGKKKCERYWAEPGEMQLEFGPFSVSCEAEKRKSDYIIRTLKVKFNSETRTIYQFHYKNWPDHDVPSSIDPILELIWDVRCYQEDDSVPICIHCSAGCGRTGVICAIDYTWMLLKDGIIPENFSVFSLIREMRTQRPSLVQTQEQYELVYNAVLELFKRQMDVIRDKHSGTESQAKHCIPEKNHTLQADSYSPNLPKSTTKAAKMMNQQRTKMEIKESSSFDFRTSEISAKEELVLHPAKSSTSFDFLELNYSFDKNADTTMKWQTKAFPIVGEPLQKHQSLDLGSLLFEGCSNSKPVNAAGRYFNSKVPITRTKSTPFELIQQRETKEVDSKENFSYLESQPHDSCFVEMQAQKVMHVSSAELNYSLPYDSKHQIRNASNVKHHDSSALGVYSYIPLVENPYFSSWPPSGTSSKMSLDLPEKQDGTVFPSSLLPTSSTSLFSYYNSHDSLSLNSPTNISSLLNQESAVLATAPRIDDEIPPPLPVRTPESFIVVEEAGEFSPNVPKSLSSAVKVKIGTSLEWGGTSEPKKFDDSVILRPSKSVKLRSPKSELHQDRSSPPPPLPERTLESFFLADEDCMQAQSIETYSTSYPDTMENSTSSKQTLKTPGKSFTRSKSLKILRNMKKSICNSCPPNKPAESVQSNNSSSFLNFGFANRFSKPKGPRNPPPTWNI
The class given is functional.

In test [5] the target is T3, Replicative DNA helicase DnaB (Mycobacterium tuberculosis, UniProt P9WMR3).
T3 sequence (P9WMR3 whole entry): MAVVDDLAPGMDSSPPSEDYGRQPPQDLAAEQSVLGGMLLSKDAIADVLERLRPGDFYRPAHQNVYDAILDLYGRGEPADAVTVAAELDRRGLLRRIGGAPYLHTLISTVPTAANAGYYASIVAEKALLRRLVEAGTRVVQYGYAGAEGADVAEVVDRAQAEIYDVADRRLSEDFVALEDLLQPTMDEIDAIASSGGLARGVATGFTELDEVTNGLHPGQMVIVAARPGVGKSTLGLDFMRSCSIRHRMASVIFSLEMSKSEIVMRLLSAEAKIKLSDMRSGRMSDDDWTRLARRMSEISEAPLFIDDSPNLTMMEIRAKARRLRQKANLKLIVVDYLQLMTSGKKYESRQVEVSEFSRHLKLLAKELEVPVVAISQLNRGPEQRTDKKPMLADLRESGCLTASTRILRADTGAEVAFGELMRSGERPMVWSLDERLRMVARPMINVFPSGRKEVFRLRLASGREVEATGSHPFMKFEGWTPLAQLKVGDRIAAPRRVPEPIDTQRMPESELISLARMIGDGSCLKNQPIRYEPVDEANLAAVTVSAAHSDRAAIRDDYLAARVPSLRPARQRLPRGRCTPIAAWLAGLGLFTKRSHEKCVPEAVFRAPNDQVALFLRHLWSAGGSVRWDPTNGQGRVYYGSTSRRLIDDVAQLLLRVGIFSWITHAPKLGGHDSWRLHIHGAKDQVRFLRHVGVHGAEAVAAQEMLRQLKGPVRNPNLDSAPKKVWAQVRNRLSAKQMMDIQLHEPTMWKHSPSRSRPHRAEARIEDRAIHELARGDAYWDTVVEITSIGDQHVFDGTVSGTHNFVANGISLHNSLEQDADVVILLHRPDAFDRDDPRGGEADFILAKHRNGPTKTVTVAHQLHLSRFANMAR
The experiment in a line: DnaB intein splicing inhibitors, dose response, biochemical, cell-free fluorescence (AID 449749). The class given is functional.

The target in test [6] is Small ubiquitin-related modifier 2 (Homo sapiens, UniProt P61956). The experiment in a line: SUMO2–SIM peptide binding inhibitors, dose response, selectivity assay for SUMO1 interaction inhibitor project, biochemical, fluorescence polarization, uHTS hits (AID 624385). Format: functional. Conditions: read-out: IC50_Mean. Background: In fluorescence polarisation assays a small probe gives low polarisation when free and higher when bound to something large.

Test [7] addresses Dual specificity protein phosphatase 3 (Homo sapiens, UniProt P51452). Nature of the test: VHR1 phosphatase inhibitors, biochemical (AID 1878).
Test [8] addresses ORF 73 (Human herpesvirus 8, UniProt O40947). Nature of the test: inhibitors of C-LANA binding to LBS DNA, dose response, biochemical, fluorescence polarization, cherry-picked samples (AID 504725).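 Also: fluorescence polarization of a labeled DNA duplex reporting LANA DNA binding; potency is for inhibitors that block LANA binding to the DNA.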 Also on record: species or system Human gammaherpesvirus 8.
For test [9], the target named is Guanyl-specific ribonuclease T1 (Aspergillus oryzae (strain ATCC 42149 / RIB 40), UniProt P00651). Nature of the test: RNase T1 inhibitors, dose response, counter-screen for TPT1 inhibitor project, biochemical, fluorescence polarization, 1536-well (AID 2167).
Guanyl-specific ribonuclease T1, sequence (P00651 whole entry): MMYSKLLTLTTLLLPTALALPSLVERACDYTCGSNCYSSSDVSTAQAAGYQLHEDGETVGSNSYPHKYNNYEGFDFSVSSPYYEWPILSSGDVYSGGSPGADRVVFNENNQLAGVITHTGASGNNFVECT

Small ubiquitin-related modifier 2, sequence (P61956 whole entry): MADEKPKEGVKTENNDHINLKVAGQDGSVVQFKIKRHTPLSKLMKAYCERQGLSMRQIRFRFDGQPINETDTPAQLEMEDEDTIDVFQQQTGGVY
ORF 73, sequence (O40947 whole entry): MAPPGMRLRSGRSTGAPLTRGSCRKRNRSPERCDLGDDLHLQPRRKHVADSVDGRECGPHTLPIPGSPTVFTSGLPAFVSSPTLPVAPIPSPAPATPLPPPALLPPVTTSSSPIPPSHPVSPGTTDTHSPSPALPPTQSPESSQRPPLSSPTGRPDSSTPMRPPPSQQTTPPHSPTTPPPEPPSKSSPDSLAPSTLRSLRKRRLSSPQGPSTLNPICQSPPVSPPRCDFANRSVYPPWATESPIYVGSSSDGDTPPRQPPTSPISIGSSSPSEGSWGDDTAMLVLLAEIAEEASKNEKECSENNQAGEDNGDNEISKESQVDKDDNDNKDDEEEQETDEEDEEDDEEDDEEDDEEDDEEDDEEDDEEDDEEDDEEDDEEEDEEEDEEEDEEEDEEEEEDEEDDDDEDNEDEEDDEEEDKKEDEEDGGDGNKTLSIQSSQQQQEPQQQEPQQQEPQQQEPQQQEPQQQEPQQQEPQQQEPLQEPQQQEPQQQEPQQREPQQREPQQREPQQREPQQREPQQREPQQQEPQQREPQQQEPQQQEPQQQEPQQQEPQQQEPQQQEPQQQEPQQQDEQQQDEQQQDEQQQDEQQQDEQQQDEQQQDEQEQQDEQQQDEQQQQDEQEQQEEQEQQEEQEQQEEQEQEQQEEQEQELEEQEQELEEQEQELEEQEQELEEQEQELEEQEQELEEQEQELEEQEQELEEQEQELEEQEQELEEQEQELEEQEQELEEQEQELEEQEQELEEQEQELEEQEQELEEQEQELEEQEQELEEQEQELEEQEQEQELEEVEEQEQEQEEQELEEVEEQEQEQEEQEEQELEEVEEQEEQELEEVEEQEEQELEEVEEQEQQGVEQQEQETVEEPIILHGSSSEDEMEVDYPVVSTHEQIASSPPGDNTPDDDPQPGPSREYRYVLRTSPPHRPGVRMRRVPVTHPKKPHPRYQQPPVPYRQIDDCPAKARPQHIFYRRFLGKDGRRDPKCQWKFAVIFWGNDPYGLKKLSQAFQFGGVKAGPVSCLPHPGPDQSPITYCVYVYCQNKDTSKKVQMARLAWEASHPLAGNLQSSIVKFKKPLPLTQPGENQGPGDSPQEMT
Dual specificity protein phosphatase 3, sequence (P51452 whole entry): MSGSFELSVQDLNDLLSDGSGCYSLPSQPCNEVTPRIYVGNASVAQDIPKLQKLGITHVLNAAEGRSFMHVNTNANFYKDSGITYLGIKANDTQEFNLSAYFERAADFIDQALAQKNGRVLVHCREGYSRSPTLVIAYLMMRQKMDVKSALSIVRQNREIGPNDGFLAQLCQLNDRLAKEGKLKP
Photoreceptor-specific nuclear receptor, sequence (Q9Y5X4 whole entry, the tested form may be a part): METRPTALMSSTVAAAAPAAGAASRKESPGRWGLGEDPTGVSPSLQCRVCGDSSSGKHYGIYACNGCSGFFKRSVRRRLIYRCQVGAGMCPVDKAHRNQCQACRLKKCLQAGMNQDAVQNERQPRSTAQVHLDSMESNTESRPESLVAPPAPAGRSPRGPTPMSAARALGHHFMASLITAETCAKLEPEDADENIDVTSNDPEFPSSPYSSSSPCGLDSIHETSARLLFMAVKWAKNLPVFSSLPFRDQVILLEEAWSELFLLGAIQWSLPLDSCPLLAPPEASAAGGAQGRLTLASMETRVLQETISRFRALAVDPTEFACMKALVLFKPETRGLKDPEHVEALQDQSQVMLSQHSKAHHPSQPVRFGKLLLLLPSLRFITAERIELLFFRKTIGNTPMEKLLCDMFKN

One may read the EC50 as the concentration giving half of the maximal effect. Consider `O=C1c2ccccc2C(=O)c2[nH]c(O)nc21`, for which the EC50 was 5.93 µM (active) in test [1] and 130 µM (active) in [2]. The IC50 in test [3] was 4.48 µM (active).
As to `N#Cc1c(N2CCCC2)nc(N)c2c(N)nc(N3CCCC3)cc12`, in [4], the IC50 was > 79.4 µM (inactive).
One may read the AC50 as the midpoint of the concentration-response curve, whichever way the signal moves. As for `COC(=O)c1cc(C)nc2c1C(=O)C(=O)C=C2N1CCOCC1`, in test [5], the half-maximal activity concentration (AC50) is 1.36 µM (active).
Consider `NS(=O)(=O)c1cc(C(=O)NC2CCSc3ccccc32)ccc1Cl` (centres undefined), for which the IC50 in [6] is 6.65 µM (active); in test [7] it was < 1.23 µM (inactive); in [9], > 55.7 µM (not active). Further, the AC50 in test [8] was 10.1 µM (active).
